Measured values from patent US11674967B2, “Method of identifying potential inhibitors of APO TNFα trimers” (UCB BIOPHARMA SRL, priority 2015, dated 2023).

Assays:
human TNFα trimer = molecular target: T1, human TNFα trimer (Homo sapiens, UniProt P01375); assay: RMSD of crystal structure of compound-bound TNFα trimer to Reference Structure Compound 34; settings: Cα atoms of β-sheet residues, all three subunits, PyMOL
T1 construct: His6Smt-tag (N, cleaved yes); made in house; host or cells: E. coli (vector pEMB54)
Procedure: Cells were pre-cultured at 37° C. in rich media, induced with the addition of 0.1% arabinose and allowed to express overnight at 25° C. in vector pEMB54. This vector introduces a cleavable N-terminal His6Smt-tag. The cells were lysed and purified by Ni-NTA chelate chromatography. The fusion protein was eluted with buffer containing imidazole and cleaved by the addition of protease. The final cleaved TNFα protein was purified by a subtractive Ni chelate chromatography step to remove the fusion tag and further purified by size exclusion chromatography to remove the remaining impurities. The final TNFα product was typically concentrated to 20.0 mg/ml and flash frozen in liquid nitrogen.
Purified human TNF[…] (20.0 mg/ml, VC 2043) was diluted to 4-7 mg/ml in 10 mM HEPES pH 7.5, 150 mM NaCl buffer followed by overnight incubation at 4° C. with 0.3-0.5 mM compound (1-2 molar excess). The TNF[…] compound complexes were crystallized by sitting drop vapor diffusion by mixing 0.5 μl of complex with 0.5 μl of 21.44% PEG 3350, 100 mM Tris, pH 9.0 (UCB1474433); or 22.0% PEG 3350, 100 mM glycine, 100 mM Tris, pH 8.5 (UCB1480595); or 25.6% PEG 3350, 100 mM Tris, pH 8.3, 3% xylitol (UCB5143079) or other formulation with varying precipitant concentration or additives over 100 μl of the same crystallization solution. Other formulations for other compounds include a range of PEG 3350 of 8-28%. Other PEG-like additives include PEG 1000 (8-18%) or PEG 2000 (10-13%). Other additives include MPD (5-13%) or 200 mM NaCl. Other buffers include 100 mM Hepes (pH 7-8), 100 mM Tris or bis-Tris (pH 6.7-9.0). Other non-PEG 3350 crystallization solutions consist of PEG 2000 (14-19%), 100 mM Hepes, pH 8, 25 mM arginine; or 17% PEG 10000, 200 mM ammonium acetate, 100 mM bis-Tris, pH 5.5; or 30% PEG 2000 MME, 100 mM sodium acetate, 100 mM Mes, pH 6.5.
Crystals were briefly soaked in ethylene glycol and/or vitrified directly in liquid nitrogen for data collection.
X-ray diffraction data were collected from a synchrotron source at a wavelength, most frequently, of 0.976484 Å and recorded on CCD detector. […] The structure of the human TNF[…] (VC 2043) complexed with compound was solved by molecular replacement using Phaser with input model of 1TNF. […] Iterative manual model building using Coot (Emsley and Cowtan, 2004) and Refmac (Murshudov et al., 1997) continued until R and Rfree converged. […] The resolution of the structures was most frequently around 2.15 Å.
Root mean squared deviation (RMSD) calculations were carried out to ascertain the distance of each of the crystal structures of distorted TNFα trimer to a reference structure.
RMSD calculations were done using the program PyMOL (www.pymol.org). In this example version 1.7. was used. The cmd.rms PyMOL command was used with defined pairs of atoms. The atoms used were the backbone Ca's of certain residues within the β-strands of TNFα. The residue numbers used are shown below:
These residue numbers are those within the published structure of TNFα with PDB code 1A8M and within the distorted TNFα trimer structures of this invention. The residue numbers are also according to the sequence of SEQ ID NO:36. The residues in each of the three chains with the TNFα structures, (labelled A, B, and C according to our instructions) were used.
The command cmd.rms was used with the following arguments:
rms=cmd.rms(“(moving)”, “(target)”, matchmaker=4, quiet=0, cycles=0)
where “(moving)” is the selection of atoms in a given TNFα structure and “(target)” is the selection of equivalent atoms within the reference structure.
The RMSD was calculated for each structure against all others. The “representative structure” or “Reference Structure” was chosen to be the one with the lowest sum RMSD to all others—the structure “Compound 34” or “Compound34.pdb”.
Reference Structure (Compound 34) and Query Structure (Compound 64) were overlaid (see FIG. 17 with Reference Structure emboldened) by: • 1. […]

Mouse TNFα = molecular target: T2, Mouse TNFα (Mus musculus, UniProt P06804); assay: Monomer exchange mass spectrometry, compound pre-incubated with m-TNFα; type: binding; settings: 1:1 complex mixed with h-TNFα
T2 construct: made in house
T2 sequence (P06804 80-235 limits assumed): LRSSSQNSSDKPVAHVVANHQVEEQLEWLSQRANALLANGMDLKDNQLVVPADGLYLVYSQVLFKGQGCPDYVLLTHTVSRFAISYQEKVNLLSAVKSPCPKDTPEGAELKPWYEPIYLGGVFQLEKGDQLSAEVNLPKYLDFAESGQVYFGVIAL
Procedure: The experiment was then repeated in reverse. Excess compound of formula 3 was incubated with Mouse TNFα, the excess compound of formula (3) was then removed. Mass Spectral analysis confirmed that a 1:1 complex had been formed between the compound of formula (3) and m-TNFα. Human TNFα was now added to this sample which was then subjected to mass spectral analysis over a number of hours. […] In addition there was evidence of formation of the ligated human homotrimer (H3L), the unligated mouse homotrimer (M3) and for unbound compound of formula (3) (L). […] Once this complex (M3L) has dissociated, monomer subunit exchange between the H3 and M3 species proceeds and the liberated ligand is then able to form complexes with all 4 trimer species present in solution.

T1 sequence (P01375 with tags, fused parts or gaps): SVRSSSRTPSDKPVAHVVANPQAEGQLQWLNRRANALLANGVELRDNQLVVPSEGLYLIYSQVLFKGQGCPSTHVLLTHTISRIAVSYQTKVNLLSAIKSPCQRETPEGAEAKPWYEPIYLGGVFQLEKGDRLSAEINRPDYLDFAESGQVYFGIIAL

Row | SMILES | RMSD (Å) with Compound 34 (human TNFα trimer) [Å] | off-rate when complexed with m-TNFα (Mouse TNFα)
1 | Cc1ccc(C)c(Cn2c(C(O)c3ccncc3)nc3ccccc32)c1 (stereo not shown) [Compound 3] | 0.33 | measurable off-rate
2 | Cc1ccc(C)c(Cn2c(C(O)c3ccncc3)nc3ccc(-c4cnn(C)c4)cc32)c1 (stereo not shown) [Compound 15] | 0.24 | no measurable off-rate
